The test system of experiment [1] is RAW264.7 murine macrophages. Put plainly: Cytokine array/ELISA of conditioned medium of RAW264.7 macrophages stimulated with chemotherapy-generated ID8 debris. Format: cell-based. The protocol: Macrophages were treated with vehicle or PTUPB (1-10 μM) in Dulbecco's phosphate-buffered saline containing calcium and magnesium (PBS^+/+) (Lonza, Basel, Switzerland) and incubated for 2 hours at 37° C. Carboplatin- or paclitaxel-generated ID8 or OVCAR5 debris was added to murine or human macrophages, respectively, at a 1:4 (macrophage:dead cell body) ratio and incubated for 1 hour at 37° C. Next, plates were aspirated, macrophages were re-fed with serum-free medium, and incubated overnight at 37° C. The conditioned medium was collected the next day, centrifuged at 1100 rpm for 5 minutes to remove particulates, and stored at −20° C. until further analysis via cytokine array, ELISA, or LC-MS/MS. Collection of RAW264.7 murine macrophage conditioned medium was repeated using debris from three distinct collections for a total of three separate experiments. Collection of human monocyte-derived macrophage conditioned medium was repeated using peripheral blood monocytes from three different human donors and debris from three distinct collections for a total of three separate experiments. Collection of primary murine peritoneal macrophages was repeated using macrophages pooled from 5-10 C57BL/6 female mice and debris from two distinct collections for a total of two separate experiments.
In vivo cytokines (serum or ascites) or cytokines in conditioned medium of macrophages treated with PTUPB and exposed to paclitaxel- or carboplatin-generated debris, were assessed according to the protocols provided by Proteome Profiler Mouse Cytokine Array Kit Panel A, Proteome Profiler Mouse Angiogenesis Array Kit, or Proteome Profiler Human Cytokine Array Kit Panel A (R&D Systems, Inc., Minneapolis, MN). Array control allows for comparison between membranes. […]
For quantitation of pro-inflammatory cytokines, serum or conditioned medium from macrophages treated with PTUPB and stimulated with paclitaxel-generated ID8 debris or from paclitaxel-generated ID8 debris alone without macrophages was used according to the protocols provided in each ELISA kit (R&D Systems, Minneapolis, MN).
On the technique in general: ELISA stands for enzyme-linked immunosorbent assay.

In experiment [2] the test system is ID8 tumor cells. Kind of experiment: MTT proliferation assay. The format is cell-based, murine. The following applies: 1-10 μM, 24 hours. Here is the method:
Cell Proliferation Kit 1 (MTT) (Roche, Basel, Switzerland) was used according to recommended protocol to quantify proliferation. ID8 cells were plated at 5×10^3 cells/well in 96-well plates with DMEM supplemented with 1% FBS and 1% GPS and incubated overnight. Cells were re-fed with DMEM supplemented with 1% FBS and 1% GPS and vehicle or PTUPB (1, 5, or 10 μM). After a 24 hour incubation at 37° C., 10 μL of MTT reagent was added to each well and incubated for 4 hours at 37° C. Next, 100 μL of solubilizing solution was added to each well and incubated overnight at 37° C. VersaMax microplate reader (Molecular Devices, San Jose, CA) was used to quantify the results of the assay. Absorbance readings were normalized to vehicle. Experiments were performed three times with similar results.
Background: Formazan colour is commonly taken as a measure of viable cells.

Experiment [3] has as its system debris-stimulated intraperitoneal ovarian tumors (ID8). Kind of experiment: Debris-stimulated intraperitoneal ID8 ovarian tumor model, survival. The format is in vivo, mice. The protocol:
All animal studies were reviewed and approved by the Animal Care and Use Committee of Beth Israel Deaconess Medical Center, Boston, MA Mice were housed at a maximum of 5 animals per cage in a pathogen-free facility with unlimited access to sterile water and chow. Daily welfare evaluations and animal sacrifices were carried out according to the Committee guidelines. For murine injections, chemotherapy-generated murine (ID8) or human (OVCAR5) ovarian tumor cell debris was combined with ID8 or OVCAR5 living cells at equal volumes in PBS. Six-week-old female C57BL/6 (The Jackson Laboratory, Bar Harbor, ME) or SCID mice (Charles River, Cambridge, MA) were injected subcutaneously or intraperitoneally with 100 μL/mouse of ID8 or OVCAR5 cells, respectively. For orthotopic injections, 6-week-old C57BL/6 female mice were injected with 20 μL/mouse of matrigel (Becton Dickinson and Company, Franklin Lakes, NJ) mixed with paclitaxel-generated ID8 debris and/or ID8 living cells at a 1:1 (matrigel:cells) ratio directly into the right ovarian bursa. Systemic treatment with PTUPB (30 mg/kg/day) or control was administered via mini-osmotic pumps (Alzet Inc., Cupertino, CA) implanted into the peritoneum of the mice 4 weeks post-injection. Treatment ended 28 days after implantation of the pumps. Systemic chemotherapy with carboplatin (10 mg/kg q 3 days) or control that were initiated on the day of tumor cell injection.
Statistical analyses for in vitro studies were performed using Student's two-tailed unpaired t-test. Data are represented as mean±S.E.M. with p-values less than 0.05 considered statistically significant. For in vivo studies, the Kaplan-Meier product-limit method and log-rank testing were used to evaluate survival differences over time after the day of tumor cell injection between mice co-injected with tumor cell debris and living cells vs. living cells alone. Data are represented as percent survival with p-values less than 0.01 considered statistically significant.

Experiment [4] has as its system RAW264.7 murine macrophages. Format: cell-based. The following applies: 5 μM, 2 hours pre-treatment.
The subject of experiment [5] is RAW264.7 murine macrophages. Kind of experiment: Inflammatory cytokine array of RAW264.7 macrophages stimulated with ethanol-generated Hepa 1-6 debris. The following applies: 5 μM (combination 5 μM each), 2 hours pre-treatment. The format is cell-based. Here is the method: Inflammatory cytokine array of RAW264.7 murine macrophage conditioned media co-cultured with ethanol-generated murine liver (Hepa 1-6) tumor cell debris and pre-treated for 2 hours with vehicle, PTUPB (5 μM), Ome-21i (5 μM), or Ome-21i+Celecoxib (5 μM each).
An inflammatory cytokine array of conditioned media from RAW264.7 macrophages treated with vehicle, PTUPB (5 μM), Ome-21i (5 μM), or Ome-21i (5 μM) and Celecoxib (5 μM) for 2 hours stimulated with ethanol-generated Hepa 1-6 debris is shown in FIG. 17. “Cytokine storm” released by debris-stimulated macrophages is prevented by the dual COX-2/sEH inhibitor PTUPB or sEH inhibitor Ome-21i and COX-2 inhibitor celecoxib.

Experiment [6] concerns RAW 264.7 murine macrophages. Put plainly: Inflammatory cytokine array of RAW264.7 macrophages stimulated with ethanol-generated MS-1 endothelial cell debris. Format: cell-based. The following applies: 5 μM (combination 2.5 μM each), 2 hours pre-treatment.
The subject of experiment [7] is human monocyte-derived macrophage. Format: cell-based. The following applies: 5 μM, 2 hours.
Experiment [8] relates to primary peritoneal murine macrophages. Format: cell-based. The note with it: RFU, percent increase above vehicle-treated macrophages.

Entries after “also recorded” stand apart in the source; their conditions may differ.

Take `NS(=O)(=O)c1ccc(-n2nc(CCCNC(=O)Nc3ccc(C(F)(F)F)cc3)cc2-c2ccccc2)cc1` [PTUPB, 4-(5-phenyl-3-{3-[3-(4-trifluoromethyl-phenyl)-ureido]propyl}-pyrazol-1-yl) benzenesulfonamide]: the “debris-stimulated macrophage release of IL-1ra” value in experiment [1] (FIGS. 4A, 4C, 5D, ID8 debris) is on record as “suppressed debris-stimulated macrophage release of IL-1ra”. Besides, in experiment [1] (PTUPB 5 μM, 2 hours, paclitaxel- or carboplatin-generated ID8 debris), the “pro-inflammatory cytokine surge (TNFα, MIP-2/CXCL2, MIP-1β/CCL4, CCL2/MCP-1, sICAM-1/CD54, G-CSF) by debris-stimulated macrophages” value is “prevented the cytokine surge”. Besides, the “angiogenic cytokine surge (serpin E1/PAI-1, osteopontin, MMP9, CCL2/MCP-1) by debris-stimulated macrophages” value in experiment [1] (PTUPB 2.5 or 5 μM, 2 hours, paclitaxel- or carboplatin-generated ID8 debris) is listed as “suppressed an angiogenic cytokine surge”. Besides, in experiment [2], the “proliferation of ID8 tumor cells in vitro” value is “inhibited proliferation”. In addition, the sustained survival result in experiment [3] (PTUPB 30 mg/kg/day by mini-osmotic pump from 4 weeks post-injection, paclitaxel- or carboplatin-generated ID8 debris + ID8 living cells i.p.) is “over 120 days post-injection”. Further, the “survival compared to control (Kaplan-Meier, log-rank), paclitaxel-generated debris i.p. model” value in experiment [3] (PTUPB 30 mg/kg/day, log-rank test=9.70, p=0.0018) was “significantly prolonged survival”. The “survival compared to control (Kaplan-Meier, log-rank), carboplatin-generated debris i.p. model” value in experiment [3] (PTUPB 30 mg/kg/day, log-rank test=9.85, p=0.0017) is listed as “significantly prolonged survival”. In addition, the “cytokine storm released by macrophages stimulated with aflatoxin B1-generated Hepa 1-6 debris” value in experiment [4] is listed as “prevents the aflatoxin B1-induced cytokine storm; also recorded: able to inhibit; also recorded: prevented”. Further, the “cytokine storm released by macrophages stimulated with ethanol-generated Hepa 1-6 debris” value in experiment [5] is given as “able to inhibit; also recorded: prevented”. In experiment [6], the “cytokine storm by ethanol-generated endothelial cell (MS-1) debris” value is given as “inhibited”. Also, the “cytokine storm induced by aflatoxin B1-generated HepG2 debris in human monocyte-derived macrophages” value in experiment [7] is on record as “inhibited”. The “macrophage phagocytosis of aflatoxin B1-generated tumor cell debris, primary peritoneal murine macrophages” value in experiment [8] was “stimulates macrophage phagocytosis”.
